The NIST ThermoML archive (doi:10.1016/j.jct.2010.05.011)
± gives the expanded uncertainty stated by the source.

Tests used:
[1] = 101.33 kPa, Liquid; for speed of sound: Sing-around technique in a fixed-path interferometer; for mass density: Vibrating tube method; for viscosity: Capillary tube (Ostwald / Ubbelohde) method
[2] = refractive index (Na D-line) (dimensionless); conditions: 101.33 kPa, Liquid, Standard Abbe refractometry

COS(=O)(=O)[O-].C[n+]1ccccc1 [1-methylpyridinium methylsulfate]
Conditions | mass density, [1] [kg/m3] | refractive index, [2] | speed of sound, [1] [m/s] | viscosity, [1] [mPa·s]
293.15 K | 1348.22 ± 1.6 | 1.51431 ± 0.00051 | 1888.6 ± 4.5 | –
298.15 K | 1344.83 ± 1.6 | 1.51296 ± 0.00051 | 1876.4 ± 4.5 | 116.2 ± 7.3
303.15 K | 1341.44 ± 1.6 | 1.51162 ± 0.00051 | 1864.4 ± 4.5 | 91 ± 5.7
308.15 K | 1338.07 ± 1.6 | 1.51029 ± 0.00051 | 1852.6 ± 4.5 | 73.1 ± 4.5
313.15 K | 1334.71 ± 1.6 | 1.50895 ± 0.00051 | 1840.9 ± 4.5 | 59.7 ± 3.7
318.15 K | 1331.35 ± 1.6 | 1.50764 ± 0.00051 | 1829.4 ± 4.5 | 49.3 ± 3
323.15 K | 1328.01 ± 1.6 | 1.50629 ± 0.00051 | 1817.9 ± 4.5 | 41.29 ± 2.5
328.15 K | 1324.69 ± 1.6 | 1.50497 ± 0.00051 | 1806.5 ± 4.5 | 35.41 ± 2.2
333.15 K | 1321.38 ± 1.6 | 1.50361 ± 0.00051 | 1795.2 ± 4.5 | 30.22 ± 1.9
338.15 K | 1318.09 ± 1.6 | 1.50226 ± 0.00051 | 1784 ± 4.5 | 26.16 ± 1.6
343.15 K | 1314.82 ± 1.6 | 1.5009 ± 0.00051 | 1772.8 ± 4.5 | 22.77 ± 1.4

COS(=O)(=O)[O-].Cc1ccc[n+](C)c1 [1,3-dimethylpyridinium methyl sulfate]
Conditions | mass density, [1] [kg/m3] | refractive index, [2] | speed of sound, [1] [m/s] | viscosity, [1] [mPa·s]
293.15 K | 1305.87 ± 1.5 | 1.5147 ± 0.00051 | 1834.9 ± 4.5 | –
298.15 K | 1302.51 ± 1.5 | 1.5133 ± 0.00051 | 1822.2 ± 4.5 | 128.6 ± 8.1
303.15 K | 1299.14 ± 1.5 | 1.51184 ± 0.00051 | 1809.7 ± 4.5 | 97.1 ± 6.1
308.15 K | 1295.77 ± 1.5 | 1.51051 ± 0.00051 | 1797.5 ± 4.5 | 76.8 ± 4.8
313.15 K | 1292.42 ± 1.5 | 1.50911 ± 0.00051 | 1785.4 ± 4.5 | 61.2 ± 3.8
318.15 K | 1289.07 ± 1.5 | 1.5077 ± 0.00051 | 1773.5 ± 4.5 | 49.6 ± 3.1
323.15 K | 1285.74 ± 1.5 | 1.5062 ± 0.00051 | 1761.7 ± 4.5 | 40.86 ± 2.5
328.15 K | 1282.42 ± 1.5 | 1.50472 ± 0.00051 | 1750 ± 4.5 | 34.19 ± 2.1
333.15 K | 1279.11 ± 1.5 | 1.50331 ± 0.00051 | 1738.4 ± 4.5 | 28.8 ± 1.8
338.15 K | 1275.82 ± 1.4 | 1.50193 ± 0.00051 | 1726.9 ± 4.5 | 24.58 ± 1.5
343.15 K | 1272.55 ± 1.4 | 1.50046 ± 0.00051 | 1715.6 ± 4.5 | 21.15 ± 1.3
